According to article PMC11984388, “A brain-accessible peptide modulates stroke inflammatory response and neurotoxicity by targeting BDNF-receptor TrkB-T1 specific interactome” (Theranostics, 2025):
Residues, ends and D or L forms follow the SMILES beside them. *: point of attachment. Biotin = O=C1N[C@H]2[C@H](CS[C@H]2CCCCC(=O)*)N1

Key:
[1] = Peptide detection in brain cortex after photothrombotic ischemia; assay type: in vivo; conditions: 3 nmol/g i.v. 1 h after damage, male and female mice sacrificed 5 h post-stroke; Fluorescein Avidin D (Fig 5C)
Protocol: (§1) Vehicle (saline), Bio-TMyc or Bio-TT1Ct (3 nmol/g) were retro-orbitally injected in mice one hour after induction of photothrombotic damage or, alternatively, undamaged animals. In the first case, animals were sacrificed 5 h after damage induction while, the second group was sacrificed 30 min after peptide administration. The details of brain fixation and cryoprotection for peptide visualization and/or immunohistochemistry are provided in the Supplementary material. […]
(§2) Finally, the sa mple s were mounted in Prolong Diamond. The images were acquired using an inverted Zeiss LSM 710 laser confocal microscope (Jena, Germany) with a 40x or 63x Plan-Apochromatic oil immersion objective. Images corre spond to single se ctions and were normalized for eac h colour se para tely and process ed for presenta tion with ImageJ (NIH Image) and Fiji.
(§3) Peptide visualization and immunohistochemis tr y in brain cortex
(§4) For peptide visua liz ation in undamaged or damaged brains, animals were deeply anes thetized and intra cardially perfus ed with cold PBS and 4% paraformalde hyde in PBS. Brains were post-fixed in the sa m e fixative at 4°C for 24 h and cryoprote cted in 30% suc ros e for 48 h at 4°C. […]

[2] = Peptide delivery to brain cortex of undamaged animals; assay type: in vivo; conditions: 3 nmol/g i.v. (retro-orbital), undamaged male mice, sacrificed 30 min after; Fluorescein Avidin D (Fig S5)
Protocol: as §1, §2, §3, §4

[3] = Beam walking test after photothrombotic ischemia; assay type: in vivo, mice; conditions: contralateral hind paw slips, beam walking 24 h after insult, 3 nmol/g i.v. 1 h after damage, mean ± SEM, n = 10-12
[4] = Infarct volume after photothrombotic permanent ischemia; assay type: in vivo, mice; conditions: 24 h, TTC, relative to hemisphere volume
Protocol: Permanent focal ischemia was induced in cerebral cortex of adult male and female mice by microvascular photothrombosis as described with modifications. Brain injury involves vascular endothelium damage and platelet activation, followed by microvascular thrombotic occlusion of a particular region selected for illumination using a stereotaxic frame. Coordinates were +0.2 AP, +2 ML relative to Bregma and damaged area corresponded to primary motor and somatosensory cortex. For neuroprotection, a single dose (3 nmol/g) of peptides TMyc or TT1Ct (see below) was administered 1 h after damage initiation. Further details of the procedures, including measurement of infarct volume and evaluation of motor coordination and balance, are detailed as Supplementary material.
Antibodies, chemica ls and recombinant proteins, cell-penetrating peptides , prime rs , commercial as says , experimental models, recombinant DNAs and software ar e des cribe d in the Table S1, included as Supplementary material.
Animal procedures were performed follow ing Europea n Union Directive 2010/63/ EU and were approved by the CS I C and Comunidad de Ma drid (Ref PROEX 276.6/20) ethics committees.
Hous ing facilities were approved by Comunidad de Ma drid (#ES 280790000188) and conform to official regulations. Animals had sta ndard health and immune sta tus and were looked af ter by profes sional caretake rs daily. Ma l e and female mice were kept in groups of up to five in sta ndard IVC cage s while 1–2 pregnant rats occupied sta ndard cage s, always containing bedding and nes ting materials. Animals were under controlled lighting conditions (12 h light cycles ), relative humidity and temperature. Irradiated food and water were provided ad libitum.
We trie d to minimiz e animal suffering and reduce the number of sa cri f i ced animals .
Mi c e model of isc he mia by microv ascular photothr ombosis to study in vivo excitotoxicity This model of permanent focal isc hemia mimics embolic or thrombotic occlus ion of sm a ll ar ter ie s, which is freque ntly found in human stroke, and caus es a focal brain damage with histological and MR I corre lations to human patterns. The procedure was as previously des cribe d with some modific ations . Ma l e and female Ba lb/c OlaHsd mice (23–31 g; 10–16 weeks of age; Envigo Rms , Spain S.L.) were allowed to acc limatize to our facilities for at least 1 week af ter delivery, before isc hemic induction. They were kept with the sa m e cage mates, and daily examined to chec k their health sta tus . Mi c e were anes thetized with isoflurane (5% for induction, 2% for maintenance in oxygen; Abbot Labora tories , Ma drid, Spain) and then placed in a ste reotaxic frame (Naris hige Group, Tokyo, Ja pan). Body temperature was maintained at 36–37°C using a se l f-regulating heating blanket (Cibertec, Ma drid, Spain). A midline sc al p incision was made, the skull was expos ed, and both Bregma and Lambda points were identifie d.
A cold- light (Sc hott KL 2500 LCD; Schott Glas s, Ma inz, Germany) with a fibre optic bundle of 1.5 mm in diameter was centred using a micromanipula tor on the right side , at 0.2 mm anterior and 2.0 mm lateral (+0.2 AP, +2 ML ) relative to Bregma. […] Five minutes later, the brain was illumina ted (600 lms, 3,000 K) through the intact […]
skull for 10 min. Br ain injury encompas se s damage to vas cular endothelium, platelet activation, and subs equent microvascula r thrombotic occlus ion of the irradiate d region. The ar eas underneath this ste reotaxic position that result irradiate d ar e the prima ry motor cortex and the prima ry soma tos ens ory cortex (hindlimb and forelimb). Once completed surgery, the incision was sutured, and mice were allowed to recover. […]

[5] = tested on: neurons of primary cortical cultures; test: Neuronal viability (MTT) under NMDA excitotoxicity; assay type: cell-based, rat
Protocol: Cultures were prepared from cerebral cortex of 18-day-old Wistar rat embryos, both genders indistinctly included. Unless otherwise indicated, glial growth was inhibited after 7 days in vitro (DIVs), experimental treatments taking place after 12 DIVs. These cultures present a high percentage of neurons, combined with glial cells, mostly astrocytes. To induce excitotoxicity, cultures were incubated with NMDA (100 µM) and its co-agonist glycine (10 µM), herein denoted simply as NMDA, which induce a strong excitotoxic response in mature neurons but have no effect on astrocyte viability,[47]. When indicated, cultures were preincubated for 30 min with indicated concentrations of Tat-derived CPPs before NMDA treatment, peptides being kept in the medium along treatment. Total cell or neuronal viability assessment was established by the thiazolyl blue formazan (MTT) reduction assay. Further details are provided as Supplementary material. […]
skull for 10 min. Br ain injury encompas se s damage to vas cular endothelium, platelet activation, and subs equent microvascula r thrombotic occlus ion of the irradiate d region. The ar eas underneath this ste reotaxic position that result irradiate d ar e the prima ry motor cortex and the prima ry soma tos ens ory cortex (hindlimb and forelimb). Once completed surgery, the incision was sutured, and mice were allowed to recover.
For neuroprote ction experiments, a single dose (3 nmol/g) of peptides TMyc or TT1Ct (> 95% purity; GenScript), solubilized as 2.5 mM solutions in 0.9% NaC l, we retro-orbita lly injected 1 h af ter damage initiation. In order to improve their plas ma sta bility, thes e peptides ar e N- and C-ter modifie d by, respec tive ly, ace tyl and amide groups. Mi c e were not subje cted to other procedures before isc hemia and were naive to drug or peptide treatment. Animals were randomly allocated to the experimental groups and the resea rc hers doing the experiments were blind respec t to treatment. There was not a previous es tima tion of sa mple si z e and experiments were independently car r ied out as indicated. Twenty-four hours af ter damage induction, animals completed the beam walking test and were subs equently sa cri f i ced by cervical disloca tion to meas ure the infarc t volume, as indicated below. Be fore that, brains were se ctioned into se ri al 1-mm-thick coronal sl i ce s using a mouse brain matrix (Stoe lting, Wood Dale, IL, USA), and se ctions were completely sta ine d with 2% TTC at room temperature to visua liz e the cortical infarc ts . For immunohistochemis try, animals were deeply anes thetized 5 or 24 h af ter brain damage and intra cardially perfus ed with cold PBS and 4% paraformalde hyde in PBS as indicated below.
Primary cultures of rat cor tic al neurons to study in vitro excitotoxicity The diss ected cerebral cortices of Wis ta r rat embryos (E18), both genders included, were mechanic ally diss ociated in culture medium (Minimum Esse ntia l Me dium, ME M, Life Technologies) follow ed by se eding of the cell sus pens ion at a dens ity of 1.1x10^6 cells /ml, prepared in the sa m e medium supple me nted with 22.2 mM glucos e, 0.1 mM glutamax, 5% foetal bovine se rum (FBS), 5% donor horse se rum (HS), 100 U/ml penicillin and 100 µg/ml streptomycin. Be fore se eding, the plates were treated overnight at 37°C with 100 µg/ml poly-L-lysine and 4 µg/ml laminin. The cells were incubated at 37°C in an atmosphe re of 5% CO2 and 95% humidity. Generally, glial growth was inhibited af ter 7 days in vitro (DIV s) by adding 10 µM 5 cytos ine β-D-arabinofuranos ide (AraC) and experimental treatments took place af ter 12 DIVs. Excitotoxicity was induced by incubation with NM DA (100 µM) and glycine (10 µM) for the indicated times. As indicated, cultures were preincubated with Tat-derived CP P s before […]
Mi c e had to walk through a narrow beam (1 m × 1 cm × 1 cm) placed 50 cm above the tabletop, going from an aversive stimulus (60-W light bulb) to a black goal box with nes ting material. […]

| Compound | Time of peptide detection in brain cortex after administration [1] | Crossing of the BBB and delivery to cortical cells [2] | Number of slips ([3]; female mice) | Number of slips ([3]; male mice) | Infarct volume (%) ([4]; female mice, 3 nmol/g i.v. 1 h after damage, mean, n = 9-10) | Infarct volume (%) ([4]; male + female mice, 3 nmol/g i.v. 1 h after damage induction, mean ± SEM, n = 19, n = 20) | Infarct volume (%) ([4]; male mice, 3 nmol/g i.v. 1 h after damage, mean, n = 9-10) | Neuronal viability ([5]; CPPs 0: peptide and NMDA (100 µM) at the same time, viability after 4 h of excitotoxicity, relative to untreated cells (100%), mean, n = 4-8 (Fig S4)) [%] | Neuronal viability ([5]; CPPs 30: peptide added 30' post-NMDA (100 µM), viability after 4 h of excitotoxicity, relative to untreated cells (100%), mean, n = 4-8 (Fig S4)) [%] | Neuronal viability ([5]; CPPs 60: peptide added 60' post-NMDA (100 µM), viability after 4 h of excitotoxicity, relative to untreated cells (100%), mean, n = 4-8 (Fig S4)) [%] | Neuronal viability ([5]; dose-response experiment (Fig 3B): peptide 15 µM preincubated 30 min, NMDA 2 h, mean ± SEM, n = 8) [%] |
| --- | --- | --- | --- | --- | --- | --- | --- | --- | --- | --- | --- |
| CC[C@H](C)[C@H](NC(=O)[C@H](CCCCN)NC(=O)[C@H](Cc1c[nH]cn1)NC(=O)[C@H](Cc1ccccc1)NC(=O)[C@H](CC(C)C)NC(=O)[C@@H](NC(=O)[C@H](Cc1ccccc1)NC(=O)[C@@H]1CCCN1C(=O)[C@@H]1CCCN1C(=O)[C@H](CCCNC(=N)N)NC(=O)[C@H](CCCNC(=N)N)NC(=O)[C@H](CCCNC(=N)N)NC(=O)[C@H](CCC(N)=O)NC(=O)[C@H](CCCNC(=N)N)NC(=O)[C@H](CCCNC(=N)N)NC(=O)[C@H](CCCCN)NC(=O)[C@H](CCCCN)NC(=O)[C@H](CCCNC(=N)N)NC(=O)CNC(=O)[C@H](Cc1ccc(O)cc1)NC(=O)CCCC[C@@H]1SC[C@@H]2NC(=O)N[C@@H]21)C(C)C)C(=O)N1CCC[C@H]1C(=O)N[C@@H](CC(C)C)C(=O)N[C@@H](CC(=O)O)C(=O)NCC(N)=O [Bio-TT1Ct] (Biotin-YGRKKRRQRRRPPFVLFHKIPLDG-NH2) | at least 4 h | able to cross the BBB and efficiently reach most cortical cells in 30 min | – | – | – | – | – | – | – | – | – |
| Ac-YGRKKRRQRRRAEEQKLISEEDLLR-NH2 [TMyc, reference compound] | – | – | 5 ± 1 | 10 ± 1 | 15 ± 2 | 17 ± 2 | 20 ± 1 | 36 | 37 | 37 | 13 ± 9 |
